COc1ccc(C(=O)O)cc1
solubility (mole fraction)
Settings | 273.15 K | 278.15 K | 283.15 K | 288.15 K | 293.15 K | 298.15 K | 303.15 K | 308.15 K | 313.15 K | 318.15 K
in acetonitrile | 0.00105 | 0.00122 | 0.00156 | 0.00194 | 0.00231 | 0.00281 | 0.00351 | 0.00419 | 0.00492 | 0.00603
in chloroform | 0.00116 | 0.00135 | 0.00173 | 0.0021 | 0.00251 | 0.00299 | 0.00383 | 0.0045 | 0.00538 | 0.00637
in ethanol | 0.00549 | 0.00653 | 0.00757 | 0.00887 | 0.0101 | 0.0118 | 0.0136 | 0.0163 | 0.0188 | 0.0221
in ethyl acetate | 0.0053 | 0.00601 | 0.00728 | 0.00853 | 0.00954 | 0.0112 | 0.0128 | 0.0142 | 0.0167 | 0.0207
in isopropanol | 0.00377 | 0.00489 | 0.00597 | 0.00722 | 0.00872 | 0.0105 | 0.0127 | 0.0152 | 0.0176 | 0.0211
in methanol | 0.00454 | 0.00526 | 0.00632 | 0.00752 | 0.00857 | 0.0102 | 0.0117 | 0.0138 | 0.0161 | 0.0193
in methyl acetate | 0.00527 | 0.00611 | 0.0073 | 0.00849 | 0.00968 | 0.0112 | 0.0131 | 0.0153 | 0.0176 | 0.0213
in n-propanol | 0.00455 | 0.00527 | 0.00631 | 0.00754 | 0.00895 | 0.0106 | 0.0127 | 0.0149 | 0.0174 | 0.0201

From BigSolDB 2.1
